ChEMBL document CHEMBL1201862, “PubChem BioAssay data set” (2004)
Calls of active or inactive are those of the source.

Experiments:
[1] = viability of PTEN-deleted HCT116 cells – cell-based, HCT116 PTEN knockout, dose response (AID 1047); assay type: functional;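 further: HCT116 colon tumor cells with PTEN knocked out; cells exposed to compound for 60 hours before readout; potency for loss of cell viability measured by luminescence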
[2] = viability of HCT116 lacking mutant beta-catenin – cell-based, human colon tumor, dose response (AID 1045); assay type: functional;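 further: HCT116 colon tumor cells with beta catenin knocked out; cells exposed to compound for 60 hours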
INS1 = assay: INS-1E survival protection against cytokine death – cell-based, luminescence, retest, dose response (AID 449756); assay type: functional; details: Rattus norvegicus;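 further: cell death triggered by IL-1 beta plus TNF-alpha plus IFN-gamma mixture; protective hits raise ATP signal compared with cytokine alone wells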
H9c2 = assay: cells; assay type: functional, cell-based; details: Rattus norvegicus, H9c2, Myocardium
[3] = reduction of Shn3 3'UTR-driven luciferase in osteoblasts – cell-based, Clone20 osteoblasts, firefly luciferase, cherry-picked, dose response (AID 624132); assay type: functional;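 further: firefly luciferase luminescence from reporter carrying the Shn3 3'UTR in osteoblasts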
[4] = non-specific 3'UTR reporter inhibition in Clone20-Shn3RL – cell-based, Renilla luciferase, cherry-picked, counter-screen for Shn3 inhibitor project, dose response (AID 624133); assay type: functional
[5] = luciferase reporter signal suppression in cells – H4 neuroglioma cells, luminescence, dose response (AID 1990); assay type: functional, cell-based
[6] = Luminescence Cell-Based Dose Response HTS to Identify Inhibitors of 5'UTR Stem-Loop Driven Prion Protein mRNA Translation in H4 Neuroglioblastoma Cells. [Related pubchem assays: 1827 (Project Summary), 1813 (Primary HTS)]; assay type: functional
[7] = alpha-synuclein stem-loop luciferase translation blockers – H4 neuroglioma cells, luminescence, confirmation (AID 1988); assay type: functional, cell-based
Protein skinhead-1 = target: T1, Protein skinhead-1 (Caenorhabditis elegans, UniProt P34707); assay type: functional
T1 sequence (P34707 whole entry): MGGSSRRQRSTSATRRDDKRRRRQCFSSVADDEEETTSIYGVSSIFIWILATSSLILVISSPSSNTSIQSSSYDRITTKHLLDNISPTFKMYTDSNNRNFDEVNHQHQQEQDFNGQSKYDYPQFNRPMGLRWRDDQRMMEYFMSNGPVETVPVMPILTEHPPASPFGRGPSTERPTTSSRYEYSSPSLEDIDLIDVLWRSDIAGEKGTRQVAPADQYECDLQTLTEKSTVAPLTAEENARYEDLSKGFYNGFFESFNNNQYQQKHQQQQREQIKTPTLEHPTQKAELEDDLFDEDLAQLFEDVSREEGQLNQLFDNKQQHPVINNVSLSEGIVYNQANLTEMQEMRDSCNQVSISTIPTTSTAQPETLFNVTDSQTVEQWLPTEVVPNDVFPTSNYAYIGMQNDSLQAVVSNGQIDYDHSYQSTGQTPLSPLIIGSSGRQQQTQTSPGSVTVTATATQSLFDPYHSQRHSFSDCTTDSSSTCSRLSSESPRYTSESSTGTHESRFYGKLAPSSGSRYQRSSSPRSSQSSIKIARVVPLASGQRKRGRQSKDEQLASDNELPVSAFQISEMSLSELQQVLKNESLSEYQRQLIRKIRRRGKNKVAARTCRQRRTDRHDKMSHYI

[8] = Luminescence Cell-Based Dose Retest to Confirm Inhibitors of Cancer Stem Cells. [Related pubchem assays (depositor defined):AID2717, AID2721]; assay type: functional; details: Homo sapiens
[9] = target: Heat shock protein HSP 90-alpha (Homo sapiens, UniProt P07900); assay type: functional, organism-based
[10] = target: T2, Heat shock factor protein 1 (Mus musculus, UniProt P38532); assay: enhancement of HSF1-driven luciferase signal – cell-based, NIH3T3, luminescence, dose retest, confirmation (AID 435004); assay type: functional;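 further: stress induced by proteasome inhibitor MG132 added 30 min after compound; luciferase reporter driven by HSF1 response element in NIH3T3 cells; actives raise luminescence as potentiators of the MG132 stress response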
T2 sequence (P38532 whole entry): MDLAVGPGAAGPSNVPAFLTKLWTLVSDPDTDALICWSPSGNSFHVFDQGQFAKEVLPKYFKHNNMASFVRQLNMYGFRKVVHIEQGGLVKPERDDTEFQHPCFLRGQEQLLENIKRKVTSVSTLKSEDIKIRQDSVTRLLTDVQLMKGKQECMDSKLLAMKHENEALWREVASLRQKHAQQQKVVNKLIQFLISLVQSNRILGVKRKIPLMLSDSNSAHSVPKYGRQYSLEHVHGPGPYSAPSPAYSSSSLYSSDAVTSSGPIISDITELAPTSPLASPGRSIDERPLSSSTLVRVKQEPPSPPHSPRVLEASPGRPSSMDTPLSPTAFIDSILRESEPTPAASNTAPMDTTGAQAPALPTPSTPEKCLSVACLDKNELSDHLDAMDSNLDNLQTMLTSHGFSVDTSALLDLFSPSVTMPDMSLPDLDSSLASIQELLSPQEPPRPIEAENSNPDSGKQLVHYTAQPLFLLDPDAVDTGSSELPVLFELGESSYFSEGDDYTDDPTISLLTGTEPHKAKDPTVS

[11] = target: Luciferin 4-monooxygenase (Photinus pyralis, UniProt P08659); assay: inhibition of purified Photinus pyralis luciferase – biochemical, luminescence, dose response (AID 1891)
[12] = Luminescence Cell-Based Dose Confirmation HTS to Identify Inhibitors of Platelet Dense Granule Release. [Related pubchem assays: 1663 (Primary HTS), 1678 (Summary of Project)]; assay type: functional
[13] = target: FAD-linked sulfhydryl oxidase ALR (Homo sapiens, UniProt P55789); assay: ALR-catalysed DTT oxidation blockers – biochemical, H2O2 detection, luminescence, cherry-pick, dose response (AID 493248)
[14] = Trypanosoma cruzi growth suppression in host cells – NIH3T3 host cells, beta-gal luminescence, confirmation (AID 2044); assay type: functional, cell-based;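 further: intracellular parasites grown in NIH/3T3 mouse fibroblasts as host cells; luminescent beta-galactosidase reporter signal from transgenic T. cruzi replicating inside host cells; inhibitors lower the luminescence signal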
[15] = NIH3T3 cell viability loss – ATP luminescence, mouse fibroblasts, counter-screen, dose response (AID 2010); assay type: functional, cell-based;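 further: cells exposed to compound for about 90 hours before reading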
[16] = viability of uninfected HEp-2 cells – cell-based, HTS, cytotoxicity control for RSV inhibitor project, dose response (AID 2410); assay type: functional; details: human respiratory syncytial virus
[17] = target: T3, Calpain-2 catalytic subunit (Sus scrofa, UniProt P43367); assay: m-calpain protease blockers, concentration series – biochemical, fluorogenic peptide substrate, dose response (AID 1420); assay type: functional
T3 sequence (P43367 whole entry): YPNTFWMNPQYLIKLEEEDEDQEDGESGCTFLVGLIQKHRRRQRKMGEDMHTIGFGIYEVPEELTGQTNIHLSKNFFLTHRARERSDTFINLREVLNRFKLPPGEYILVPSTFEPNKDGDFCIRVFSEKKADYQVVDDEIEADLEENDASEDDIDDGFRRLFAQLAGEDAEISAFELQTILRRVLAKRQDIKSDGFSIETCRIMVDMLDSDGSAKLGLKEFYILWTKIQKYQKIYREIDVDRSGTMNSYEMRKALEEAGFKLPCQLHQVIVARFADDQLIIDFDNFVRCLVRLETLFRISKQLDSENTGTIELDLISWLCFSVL

Cytochrome P450 2C19 = Cytochrome P450 2C19 (Homo sapiens, UniProt P33261); assay: Cytochrome panel assay with activity outcomes. Panel member name: p450-cyp2c19 Compounds with AC50 equal or less than 10 uM are considered active; assay type: functional
Cytochrome P450 3A4 = Cytochrome P450 3A4 (Homo sapiens, UniProt P08684);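 further: CYP3A4 tested as one member of a cytochrome P450 panel screen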
Sequence of Cytochrome P450 3A4 (P08684 whole entry): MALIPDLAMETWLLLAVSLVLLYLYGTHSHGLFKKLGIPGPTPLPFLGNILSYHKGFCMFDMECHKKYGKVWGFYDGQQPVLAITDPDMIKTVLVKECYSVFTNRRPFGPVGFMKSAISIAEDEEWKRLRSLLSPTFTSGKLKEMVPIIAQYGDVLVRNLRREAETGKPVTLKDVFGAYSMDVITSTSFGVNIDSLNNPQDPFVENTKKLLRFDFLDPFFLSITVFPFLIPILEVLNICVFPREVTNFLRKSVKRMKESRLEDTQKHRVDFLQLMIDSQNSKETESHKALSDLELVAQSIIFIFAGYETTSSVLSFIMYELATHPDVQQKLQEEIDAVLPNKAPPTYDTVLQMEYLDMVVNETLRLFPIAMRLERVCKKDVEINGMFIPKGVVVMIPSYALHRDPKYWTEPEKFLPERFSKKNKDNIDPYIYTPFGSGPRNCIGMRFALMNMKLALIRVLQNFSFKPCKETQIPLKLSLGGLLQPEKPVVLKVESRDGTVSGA

Sequence of Luciferin 4-monooxygenase (P08659 whole entry): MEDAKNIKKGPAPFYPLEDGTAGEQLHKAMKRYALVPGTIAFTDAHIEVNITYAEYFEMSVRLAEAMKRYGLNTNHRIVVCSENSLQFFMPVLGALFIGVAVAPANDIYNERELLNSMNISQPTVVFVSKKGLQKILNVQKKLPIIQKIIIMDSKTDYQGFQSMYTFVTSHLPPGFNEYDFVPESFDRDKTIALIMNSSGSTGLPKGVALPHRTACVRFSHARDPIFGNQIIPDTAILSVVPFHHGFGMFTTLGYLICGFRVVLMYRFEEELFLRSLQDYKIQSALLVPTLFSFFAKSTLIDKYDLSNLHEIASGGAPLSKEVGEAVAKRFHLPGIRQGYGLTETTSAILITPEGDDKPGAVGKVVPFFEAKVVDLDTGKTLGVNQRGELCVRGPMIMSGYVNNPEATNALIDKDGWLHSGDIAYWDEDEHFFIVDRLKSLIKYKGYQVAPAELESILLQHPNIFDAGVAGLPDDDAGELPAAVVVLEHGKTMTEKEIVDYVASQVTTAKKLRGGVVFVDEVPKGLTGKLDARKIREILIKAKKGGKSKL
Sequence of Cytochrome P450 2C19 (P33261 whole entry): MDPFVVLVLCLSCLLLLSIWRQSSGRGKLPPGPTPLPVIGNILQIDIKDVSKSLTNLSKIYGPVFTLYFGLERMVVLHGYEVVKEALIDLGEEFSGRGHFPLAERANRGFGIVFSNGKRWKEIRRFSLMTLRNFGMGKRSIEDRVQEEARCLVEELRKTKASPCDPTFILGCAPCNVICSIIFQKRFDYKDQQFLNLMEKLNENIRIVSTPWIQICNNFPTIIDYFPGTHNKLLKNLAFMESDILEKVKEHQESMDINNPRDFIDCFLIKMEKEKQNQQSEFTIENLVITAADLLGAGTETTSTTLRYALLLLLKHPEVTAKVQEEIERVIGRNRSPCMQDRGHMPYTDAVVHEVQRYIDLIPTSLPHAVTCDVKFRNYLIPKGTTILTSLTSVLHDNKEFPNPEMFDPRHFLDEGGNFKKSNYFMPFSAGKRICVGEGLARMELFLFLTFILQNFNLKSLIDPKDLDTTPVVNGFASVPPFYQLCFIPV
Sequence of FAD-linked sulfhydryl oxidase ALR (P55789 whole entry): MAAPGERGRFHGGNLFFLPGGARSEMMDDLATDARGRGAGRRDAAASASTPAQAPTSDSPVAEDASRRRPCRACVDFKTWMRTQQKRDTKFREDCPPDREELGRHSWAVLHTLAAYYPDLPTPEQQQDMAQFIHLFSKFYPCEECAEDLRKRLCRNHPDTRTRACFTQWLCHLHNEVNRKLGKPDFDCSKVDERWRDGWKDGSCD

## O=C1/C(=C/c2cccnc2)CCC/C1=C\c1cccnc1
[1]
  EC50: 1.43 µM (active)
[2]
  EC50: 1.09 µM (active)
INS1
  AC50: 3.04 µM (active)

## Cn1c(-c2ccc(Cl)cc2)cnc1N
H9c2
  IC50: > 79 µM (inactive)

## S=C(Nc1ccccc1)Nc1ccc(OCc2ccc(Cl)cc2Cl)cc1
[3]
  AC50: 0.405 µM (active)
[4]
  AC50: 0.406 µM (active)

## COc1ccc(-c2csc(/C(C#N)=C/Nc3cc4oc5ccccc5c4cc3OC)n2)cc1
[5]
  EC50: > 120 µM (not active)
[6]
  EC50: 91.7 µM (active)
[7]
  EC50: > 120 µM (not active)

## CN(CCCN1CCOCC1)C(=O)c1cc(COc2cccc(C(F)(F)F)c2)on1
Protein skinhead-1
  IC50: > 100 µM (inactive)

## Cc1cccc(Nc2nc(N)c([N+](=O)[O-])c(N3CC(C)CC(C)C3)n2)c1 (stereo not drawn)
[1]
  EC50: 13.1 µM (active)
[2]
  EC50: 15.1 µM (active)
[8]
  AC50: 6.36 µM (active)
[9]
  AC50: 7.38 µM (active)
INS1
  AC50: 8.89 µM (active)

## COc1cccc(C2C([N+](=O)[O-])=C(N)Oc3c2c(=O)oc2ccccc32)c1 (stereo not drawn)
[10]
  EC50: > 260 µM (inactive)

## O=C(CN1CCCC1)Nc1sc2c(c1C(=O)Nc1ccc(Br)cc1)CCC2
Protein skinhead-1
  IC50: > 100 µM (inactive)

## O=C(c1ccccc1Br)N1CCN(c2ccccc2)CC1
[10]
  EC50: > 260 µM (inactive)

## CC(=O)Nc1ccc(S(=O)(=O)NCc2ccc3c(c2)cc(C)n3C)cc1
Protein skinhead-1
  IC50: > 100 µM (inactive)

## Cc1cccc(-[n+]2c(-c3cccc(Br)c3)[nH]c3nc4ccccc4nc32)c1
[5]
  EC50: 13.2 µM (active)
[6]
  EC50: 13.7 µM (active)
[7]
  EC50: 10.5 µM (active)

## Cc1ccccc1Nc1nc(N)nc(CSc2ccccc2)n1
[10]
  EC50: 19.1 µM (active)

## Cc1c(NC(=O)c2c(N)n(-c3ccccc3)c3nc4ccccc4nc23)c(=O)n(-c2ccccc2)n1C
[11]
  EC50: > 112 µM (not active)
[12]
  EC50: > 112 µM (not active)

## Cc1ccc(NC2c3ncccc3C(=O)N2C2CCCCC2)cc1 (stereo not drawn)
[10]
  EC50: > 260 µM (inactive)
[13]
  AC50: 2.07 µM (active)

## Cn1c(CNc2cccc(Cl)c2)nnc1SCC#N
[10]
  EC50: > 260 µM (inactive)

## CCOC(=O)c1c(COc2ccccc2)oc2ccc(O)cc12
[10]
  EC50: > 260 µM (inactive)

## CC(OC(=O)Cn1[nH]c(=O)c2ccccc2c1=O)C(=O)Nc1ccc(F)cc1Cl (stereo not drawn)
H9c2
  IC50: > 79 µM (inactive)

## Cc1cc(S(=O)(=O)NCc2ccccc2)ccc1OCC(=O)Nc1cccc([N+](=O)[O-])c1
[1]
  EC50: 13 µM (active)
[2]
  EC50: 14.9 µM (active)

## O=S(=O)(NC1CCCCCC1)c1ccc(Br)s1
[9]
  AC50: 17.2 µM (active)

## COc1ccc(-c2cc(=O)oc3cc(OCC(=O)N(C)C)ccc23)cc1
Protein skinhead-1
  IC50: > 100 µM (inactive)

## CCOc1cc(CNCCSc2nnnn2C)cc(Br)c1OCc1ccccc1F
[14]
  EC50: 2.13 µM (active)
[15]
  EC50: > 60 µM (not active)
Protein skinhead-1
  IC50: 24.1 µM (active)

## Cc1ccc(CNC(=O)CSc2ccsc2[N+](=O)[O-])cc1
[10]
  EC50: 31.5 µM (active)

## Cc1ccc(C2=NC(C)(C)N=C2SCC(=O)Nc2ccc(Cl)cc2)cc1
[16]
  CC50: 30.5 µM (active)
[9]
  AC50: 15.1 µM (active)

## COc1cccc(C(=O)Nc2cccc(-c3nnc(-c4ccco4)o3)c2)c1
[17]
  IC50: > 50 µM (not active)
H9c2
  IC50: 28.2 µM (active)

## C=Cn1ccnc1P(=S)(c1ccc2c(c1)c1ccccc1n2CC)c1nccn1C=C
[1]
  EC50: 4.12 µM (active)
[2]
  EC50: 4.28 µM (active)
[8]
  AC50: 1.5 µM (active)

## Cc1ccc(C)c(Nc2nc3ccc(C)cc3n3cnnc23)c1
[5]
  EC50: 14.9 µM (active)
[6]
  EC50: > 120 µM (not active)
[7]
  EC50: > 120 µM (not active)

## CN(CC(=O)NCc1ccc2c(c1)OCO2)S(=O)(=O)c1ccc(Br)s1
[4]
  AC50: 28.2 µM (active)

## Cn1c(-n2c(CCCN3C(=O)c4ccccc4C3=O)nc3ccccc3c2=O)nc2ccccc21
H9c2
  IC50: 15.3 µM (active)

## O=C(Nc1ccc2c(c1)CN(Cc1ccco1)CC2)C1CCCO1 (stereo not drawn)
Protein skinhead-1
  IC50: > 100 µM (inactive)

## COc1ccc(C2=Nn3c(nnc3-c3ccccc3)SC2)cc1OC
[5]
  EC50: 54.9 µM (active)
[6]
  EC50: > 120 µM (not active)
[7]
  EC50: 0.318 µM (active)

## COc1cccc(-c2noc(-c3ccoc3C)n2)c1
Protein skinhead-1
  IC50: 86.4 µM (inactive)

## O=C(Nc1ccc(F)cc1)C1CCN(c2ncnc3c2nc2n3CCCCC2)CC1
[5]
  EC50: 17 µM (active)
[6]
  EC50: 16.9 µM (active)
[7]
  EC50: 15.8 µM (active)

## Cc1ccc2nc(NC(=O)/C=C/c3ccc4c(c3)OCO4)sc2c1
[1]
  EC50: 4.16 µM (active)
[2]
  EC50: 4.66 µM (active)
INS1
  AC50: 3.6 µM (active)

## CCOC(=O)N1CCN(C(=O)CSc2nc(O)c3cnn(-c4ccc(C)cc4)c3n2)CC1
H9c2
  IC50: 31.6 µM (inactive)

## Nc1nnc(SCC(=O)N2CCN(c3cccc(Cl)c3)CC2)n1-c1ccccc1
Protein skinhead-1
  IC50: > 100 µM (inactive)

## Cc1ccc(C)c(NC(=O)/C(C#N)=C/c2ccc[nH]2)c1
Protein skinhead-1
  IC50: > 100 µM (inactive)

## O=C(CCc1nc(O)c2ccccc2n1)NNC(=O)c1cccc(Cl)c1
H9c2
  IC50: > 79 µM (inactive)

## C=CCn1c(COc2ccc(CC)cc2)nnc1SC/C(O)=C(\C#N)c1nc2ccccc2[nH]1
[10]
  EC50: > 260 µM (inactive)

## Cc1nn(-c2ccccc2)c(N2CCCC2)c1/C=N/NC(=O)c1cc(-c2ccccn2)nc2ccccc12
H9c2
  IC50: > 79 µM (inactive)

## Clc1ccc(Cn2cc(/C=N/n3cnnc3)c3ccccc32)cc1
[5]
  EC50: 14.6 µM (active)
[6]
  EC50: > 120 µM (not active)
[7]
  EC50: 13.1 µM (active)

## CC(=C/c1ccccc1)/C=N/n1cnnc1
[5]
  EC50: 11 µM (active)
[6]
  EC50: 20.4 µM (active)
[7]
  EC50: 13.5 µM (active)

## O=C1/C(=C/c2ccccc2)CCCc2ccccc21
Protein skinhead-1
  IC50: 17.9 µM (active)

## Fc1ccc(CSc2ccc3nnc(-c4cccnc4)n3n2)cc1
H9c2
  IC50: > 79 µM (inactive)

## COc1ccc(Cc2nnc(O)c3ccccc23)cc1OC
Cytochrome P450 2C19
  AC50: 31.6 µM (inconclusive)
H9c2
  IC50: 7.28 µM (active)
Cytochrome P450 3A4
  AC50: 22.4 µM (inconclusive)
